From patent US8188081B2, “Methods of treating inflammation using prokineticin 1 receptor antagonists” (Janssen Pharmaceutica, NV, priority 2005, dated 2012)
Where “and” joins values, the source holds several entries; their conditions need not be identical. Equal entries are not always repeated. Entries after “also recorded” stand apart in the source; their conditions may differ.

What follows are compounds tested against T1, GPR73 (PK1 receptor) (Homo sapiens, UniProt Q8TCW9) (assay: PK1 functional assay: screening for PK1 antagonists on the FLIPR (calcium dye) in HEK 293 GPR73 expressing cells). Conditions: 10 μM compound; HEK 293 GPR73 (PK1 receptor) expressing cells, FLIPR.
T1 construct: expressed in transfected cells; host or cells: HEK 293
T1 sequence (Q8TCW9 whole entry, species assumed): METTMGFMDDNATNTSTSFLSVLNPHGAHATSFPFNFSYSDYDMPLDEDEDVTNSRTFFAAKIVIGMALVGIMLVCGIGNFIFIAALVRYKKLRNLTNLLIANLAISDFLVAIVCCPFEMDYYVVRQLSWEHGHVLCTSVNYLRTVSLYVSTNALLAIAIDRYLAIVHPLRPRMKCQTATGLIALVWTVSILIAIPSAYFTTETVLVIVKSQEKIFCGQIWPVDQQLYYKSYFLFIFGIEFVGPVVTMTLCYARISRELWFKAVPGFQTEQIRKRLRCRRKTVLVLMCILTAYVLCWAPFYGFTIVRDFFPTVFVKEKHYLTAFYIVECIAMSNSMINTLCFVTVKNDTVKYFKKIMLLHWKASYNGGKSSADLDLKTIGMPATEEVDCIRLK
Type: cell-based
Description: At a time of 24 h prior to running the assay, in cell culture media (DMEM containing high Glucose and L-glutamine, 10% FBS, 1% Pen/Streptomycin, 1% Sodium Pyruvate, 20 mM HEPES, Zeocin 200 mg/L), 100 μL of 1.3*10^6/ml HEK 293 GPR73 (PK1 receptor) expressing cells were plated in a 96 well poly-d-lysine coated plate (Costar), and incubated at 37° C. and 5% CO2. On the day in which the assay was run, the media was removed and 200 μL of 5× Calcium Plus Dye (Molecular Devices) which was previously resuspended with 200 mL of assay buffer [HBSS w/Ca^2+ and Mg^2+ w/o phenol red, 20 mM HEPES, 0.1% BSA, 10 mL probenecid (710 mg probenecid in 5 mL of 1N NaOH, to which was then added 5 mL HBSS containing 20 mM HEPES)] was added to each well of the 96-well plate. The plate was incubated at 37° C. and 5% CO2 for 30 min in dark. The plate was removed and allowed to reach RT for 15 min in the dark. The assay was then run on the FLIPR. […] Baseline is described as the amount of relative fluorescence read when buffer alone is added to cells. Baseline was subtracted from all wells. Percent of control was calculated as follows: (Baseline subtracted well value is divided by baseline subtracted max value)*100. Percent inhibition is 100 minus the percent of control value.
IC50 values were calculated using GraphPad Prism.
Table 2 includes data generated from the PK1 functional assay described in Example 2.
With `COc1ccc(Cn2c(NCCNC(=N)NCCc3ccccc3)nc(=O)n(Cc3ccc(Cl)c(Cl)c3)c2=O)cc1` [Cpd 65] the “Ca^2+ Mobilization % Inh @10 μM” value was 88%.
In the case of `COc1ccc(Cn2c(NCCNC(=N)NCCc3ccccn3)nc(=O)n(Cc3ccc(F)cc3)c2=O)cc1` [Cpd 105], the “Ca^2+ Mobilization % Inh @10 μM” value is reported as 100%.
In the case of “N-Benzoyl-N-{2-[5-(4-fluoro-benzyl)-1-(4-methoxy-benzyl)-4,6-dioxo-1,4,5,6-tetrahydro-[1,3,5]triazin-2-ylamino]-ethyl}-guanidine [Cpd 134]”, the “Ca^2+ Mobilization % Inh @10 μM” value is reported as 97, 97%.
For “N-{2-[5-(4-Fluoro-benzyl)-1-(4-methoxy-benzyl)-4,6-dioxo-1,4,5,6-tetrahydro-[1,3,5]triazin-2-ylamino]-ethyl}-N-amino-guanidine [Cpd 93]”, the “Ca^2+ Mobilization % Inh @10 μM” value was 92%.
In the case of “N-{2-[5-Benzyl-1-(4-methoxy-benzyl)-4,6-dioxo-1,4,5,6-tetrahydro-[1,3,5]triazin-2-ylamino]-ethyl}-oxyguanidine [Cpd 27]”, the “Ca^2+ Mobilization % Inh @10 μM” value is reported as 55%.

Same assay, conditions: 10 μM compound; HEK 293 GPR73 (PK1 receptor) expressing cells, FLIPR; 10 µM
For `COc1ccc(Cn2c(NCCN(C(=N)N)c3ccccn3)nc(=O)n(Cc3ccc(F)cc3)c2=O)cc1` [Cpd 104, N-{2-[5-(4-Fluoro-benzyl)-1-(4-methoxy-benzyl)-4,6-dioxo-1,4,5,6-tetrahydro-[1,3,5]triazin-2-ylamino]-ethyl}-N-pyridin-2-yl-guanidine], the “Ca^2+ Mobilization % Inh @10 μM” value was 99%.
“N-{2-[5-(3,4-Dichloro-benzyl)-1-(4-methoxy-benzyl)-4,6-dioxo-1,4,5,6-tetrahydro-[1,3,5]triazin-2-ylamino]-ethyl}-N-isopropyl-guanidine [Cpd 58]” was tested, and the “Ca^2+ Mobilization % Inh @10 μM” value was 102% and 99%.
For “N-{2-[5-(4-Fluoro-benzyl)-1-(4-methoxy-benzyl)-4,6-dioxo-1,4,5,6-tetrahydro-[1,3,5]triazin-2-ylamino]-ethyl}-N-(2-fluoro-phenyl)-guanidine [Cpd 118]”, the “Ca^2+ Mobilization % Inh @10 μM” value was 98% and 102%.
With “N-{2-[5-(4-Fluoro-benzyl)-1-(4-methoxy-benzyl)-4,6-dioxo-1,4,5,6-tetrahydro-[1,3,5]triazin-2-ylamino]-ethyl}-N-(4-fluoro-phenyl)-guanidine [Cpd 119]” the “Ca^2+ Mobilization % Inh @10 μM” value was 102% and 99%.

Same assay, conditions: HEK293, 10 μM compound; HEK 293 GPR73 (PK1 receptor) expressing cells, FLIPR; read-out: Ca^2+ Mobilization % Inh @10 μM
`COc1ccc(Cn2c(NCCONC(=N)N)nc(=O)n(Cc3ccccc3)c2=O)cc1` [Cpd 10] showed an inhibition at 10 µM of 33%.
With `COc1ccc(Cn2c(N[C@H](C)[C@@H](C)NC(=N)N)nc(=O)n(Cc3ccc(F)cc3)c2=O)cc1` [Cpd 137] the inhibition at 10 µM was 98%.
Work on `COc1ccc(Cn2c(=O)nc(NCCNC(=N)N)n(Cc3ccc(O)cc3)c2=O)cc1` [Cpd 143, N-{2-[1-(4-Hydroxy-benzyl)-5-(4-methoxy-benzyl)-4,6-dioxo-1,4,5,6-tetrahydro-[1,3,5]triazin-2-ylamino]-ethyl}-guanidine] yielded an inhibition at 10 µM of 101%.

Same assay, conditions: HEK 293 GPR73 (PK1 receptor) expressing cells, FLIPR; PK1 ligand at EC50; read-out: Ca^2+ Mobilization IC50
In the case of `N=C(N)NCCNc1nc(=O)n(Cc2ccccc2)c(=O)n1Cc1ccc(F)cc1` [Cpd 1], the IC50 is reported as > 10 µM.
For `N=C(N)NCCNc1nc(=O)n(Cc2ccccc2)c(=O)n1Cc1cccc(C(F)(F)F)c1` [Cpd 7], the IC50 was > 10 µM.
With `COc1ccc(Cn2c(NCCONC(=N)N)nc(=O)n(Cc3ccccc3)c2=O)cc1` [Cpd 10] the IC50 was > 10 µM.
In the case of `N=C(N)NCCNc1nc(=O)n(Cc2ccccc2)c(=O)n1Cc1ccncc1` [Cpd 11], the IC50 is reported as > 10 µM.
In the case of `COc1ccc(Cn2c(NCCNC(=N)N)nc(=O)n(Cc3ccccc3OC)c2=O)cc1` [Cpd 21], the IC50 is reported as > 10 µM.
In the case of `COc1ccc(Cn2c(N[C@H]3CCCC[C@@H]3NC(=N)N)nc(=O)n(Cc3ccc(Cl)c(Cl)c3)c2=O)cc1` [Cpd 43], the IC50 is reported as > 10 µM.
`N=C(N)NCCNc1nc(=O)n(Cc2ccc(F)cc2)c(=O)n1Cc1ccc([N+](=O)[O-])cc1` [Cpd 87] was tested, and the IC50 was > 10 µM.
`COc1ccc(Cn2c(NCCNC(=N)N)nc(=O)n(Cc3cccc(N)c3)c2=O)cc1` [Cpd 96] was tested, and the IC50 was > 10 µM.
`COc1ccc(Cn2c(NCCNC(=N)N)nc(=O)n(Cc3cccc(C#N)c3)c2=O)cc1` [Cpd 98] was tested, and the IC50 was > 10 µM.
In the case of `COc1ccc(Cn2c(NCCNC(=N)N)nc(=O)n(Cc3ccc(C(=O)O)cc3)c2=O)cc1` [Cpd 101, 4-[4-(2-Guanidino-ethylamino)-3-(4-methoxy-benzyl)-2,6-dioxo-3,6-dihydro-2H-[1,3,5]triazin-1-ylmethyl]-benzoic acid], the IC50 is reported as > 10 µM.
In the case of `COc1ccc(Cn2c(NCCNC(=N)N)nc(=O)n(CC(C)(C)C)c2=O)cc1` [Cpd 123], the IC50 is reported as > 10 µM.
With `COc1ccc(Cn2c(N[C@@H](C)[C@H](C)NC(=N)N)nc(=O)n(Cc3ccc(F)cc3)c2=O)cc1` [Cpd 136] the IC50 was > 10 µM.
“N-Benzoyl-N-{2-[5-(4-fluoro-benzyl)-1-(4-methoxy-benzyl)-4,6-dioxo-1,4,5,6-tetrahydro-[1,3,5]triazin-2-ylamino]-ethyl}-guanidine [Cpd 134]” was tested, and the IC50 was 0.019 µM and 0.028 µM.
“N-{2-[5-(4-Fluoro-benzyl)-1-(4-methoxy-benzyl)-4,6-dioxo-1,4,5,6-tetrahydro-[1,3,5]triazin-2-ylamino]-ethyl}-N-(2-fluoro-phenyl)-guanidine [Cpd 118]” was tested, and the IC50 was 0.006 µM.
“N-{2-[5-(4-Fluoro-benzyl)-1-(4-methoxy-benzyl)-4,6-dioxo-1,4,5,6-tetrahydro-[1,3,5]triazin-2-ylamino]-ethyl}-N-(4-fluoro-phenyl)-guanidine [Cpd 119]” was tested, and the IC50 was 0.006 µM and 0.012 µM.
“N-{2-[5-(4-Fluoro-benzyl)-1-(4-methoxy-benzyl)-4,6-dioxo-1,4,5,6-tetrahydro-[1,3,5]triazin-2-ylamino]-ethyl}-N-amino-guanidine [Cpd 93]” showed an IC50 of 0.227 µM.

Same assay, conditions: cellular assay
`COc1ccc(Cn2c(N[C@H]3CCCC[C@@H]3NC(=N)N)nc(=O)n(Cc3ccc(Cl)c(Cl)c3)c2=O)cc1` [JNJ 28611921] was tested, and the “activity at the PK1 receptor” value was “lack significant activity; also recorded: not active”.

The compounds below were run on rat ileum (assay: Contractility of isolated rat GI segments ex vivo (myobath organ bath), response to PK1). Conditions: not given.
`CN1[C@@H]2CC[C@H]1C[C@@H](OC(=O)C(CO)c1ccccc1)C2` (stereo partly shown) [Atropine, reference compound] was tested, and the “effect on the early component of the PK1-evoked contractile response” value was “attenuate”.
With `NC1=N[C@H](O)[C@H]2[C@H]3O[C@]4(O)O[C@@H]([C@@H](O)[C@@]2(N1)[C@@H]4O)[C@]3(O)CO` [Tetrodotoxin, reference compound] the “effect on the early component of the PK1-evoked contractile response” value was “attenuate”.
